Experimental data published in ChEMBL document CHEMBL1201862, “PubChem BioAssay data set” (2004).
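Compound exposure: 48 hours, 5 concentrations, 96-well plates. The concentration for 50% growth inhibition is given as GI50.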 Calls of active or inactive are those of the source. Cut-off read from the data, not from the text of the source: active = GI50 up to about 1.1 µM and inactive = higher.

Key:
Assay in all cases: inhibition of tumour cell growth, NCI panel, 48 h
[1] = system: CAKI-1
[2] = system: SNB-75
[3] = system: SNB-19
[4] = system: HCT-15
[5] = system: ACHN
[6] = system: UACC-62
[7] = system: OVCAR-8
[8] = system: MOLT-4
[9] = system: HT-29
[10] = system: NCI-H460
[11] = system: MCF7
[12] = system: UACC-257
[13] = system: SK-MEL-2
[14] = system: HCC 2998
[15] = system: SK-OV-3
[16] = system: K562
[17] = system: SF-295
[18] = system: SF-539
[19] = system: HL-60

Structure (SMILES) | GI50 [1] | GI50 [2] | GI50 [3] | GI50 [4] | GI50 [5] | GI50 [6] | GI50 [7] | GI50 [8] | GI50 [9] | GI50 [10] | GI50 [11] | GI50 [12] | GI50 [13] | GI50 [14] | GI50 [15] | GI50 [16] | GI50 [17] | GI50 [18] | GI50 [19]
Cc1csc2c1-n1cccc1C2=O | 65.8 µM (inactive) | > 100 µM (inactive) | > 100 µM (inactive) | > 100 µM | > 100 µM (inactive) | > 100 µM (inactive) | > 100 µM (inactive) | > 100 µM (inactive) | > 100 µM (inactive) | > 100 µM (inactive) | > 100 µM (inactive) | > 100 µM (inactive) | > 100 µM (inactive) | > 100 µM (inactive) | > 100 µM (inactive) | > 100 µM (inactive) | > 100 µM (inactive) | – | –
CC(=O)/C=C(/C=N/O)c1ccccc1 | > 100 µM (inactive) | 56 µM (inactive) | > 100 µM (inactive) | 64.3 µM | > 100 µM (inactive) | > 100 µM (inactive) | > 100 µM (inactive) | > 100 µM (inactive) | > 100 µM (inactive) | > 100 µM (inactive) | > 100 µM (inactive) | > 100 µM (inactive) | 56.5 µM (inactive) | > 100 µM (inactive) | > 100 µM (inactive) | > 100 µM (inactive) | > 100 µM (inactive) | > 100 µM (inactive) | –
O=C(N/N=C/c1ccc(Cl)cc1)c1ccccc1Nc1ccccc1C(=O)N/N=C/c1ccc(Cl)cc1 | > 100 µM (inactive) | > 100 µM (inactive) | > 100 µM (inactive) | > 100 µM | > 100 µM (inactive) | > 100 µM (inactive) | > 100 µM (inactive) | > 100 µM (inactive) | > 100 µM (inactive) | > 100 µM (inactive) | > 100 µM (inactive) | > 100 µM (inactive) | > 100 µM (inactive) | > 100 µM (inactive) | > 100 µM (inactive) | > 100 µM (inactive) | 54 µM (inactive) | – | –
Cc1ncc(COP(=O)(O)O)c(C)c1O | > 100 µM (inactive) | – | > 100 µM (inactive) | > 100 µM | > 100 µM (inactive) | > 100 µM (inactive) | > 100 µM (inactive) | > 100 µM (inactive) | > 100 µM (inactive) | > 100 µM (inactive) | – | > 100 µM (inactive) | > 100 µM (inactive) | – | – | > 100 µM (inactive) | > 100 µM (inactive) | – | > 100 µM (inactive)
CCOC(OCC)[C@H](N)[C@@H](O)[C@@H](O)[C@H]1COC(C)(C)O1 | – | > 100 µM (inactive) | > 100 µM (inactive) | > 100 µM | > 100 µM (inactive) | > 100 µM (inactive) | > 100 µM (inactive) | > 100 µM (inactive) | > 100 µM (inactive) | – | > 100 µM (inactive) | > 100 µM (inactive) | > 100 µM (inactive) | – | > 100 µM (inactive) | > 100 µM (inactive) | > 100 µM (inactive) | – | –
COc1ccc2nc3ccc(OC)cc3c(SCc3ccc([N+](=O)[O-])cc3)c2c1 | 44.1 µM (inactive) | 37.1 µM (inactive) | > 100 µM (inactive) | > 100 µM | 79.1 µM (inactive) | > 100 µM (inactive) | 52.7 µM (inactive) | > 100 µM (inactive) | 24.1 µM (inactive) | > 100 µM (inactive) | – | > 100 µM (inactive) | > 100 µM (inactive) | > 100 µM (inactive) | > 100 µM (inactive) | > 100 µM (inactive) | 31.5 µM (inactive) | 39.2 µM (inactive) | > 100 µM (inactive)
O=C(c1cccnc1)N1N=C(c2ccc(Cl)cc2)CC1(O)c1cc(F)c(Cl)cc1Cl (configuration not stated) | 28.5 µM (inactive) | 5.7 µM (inactive) | 41.3 µM (inactive) | 13.6 µM | 18.8 µM (inactive) | – | 25.1 µM (inactive) | 6.46 µM (inactive) | 14.8 µM (inactive) | 21.5 µM (inactive) | – | 18.5 µM (inactive) | 22 µM (inactive) | – | 30.2 µM (inactive) | 16.6 µM (inactive) | 19.5 µM (inactive) | 12.2 µM (inactive) | 15.1 µM (inactive)
O=C1c2ccccc2-n2c1nc1ccc(Cl)cc1c2=O | 33 µM (inactive) | 27.5 µM (inactive) | > 100 µM (inactive) | 56.1 µM | > 100 µM (inactive) | 16.3 µM (inactive) | 35.2 µM (inactive) | 78.3 µM (inactive) | > 100 µM (inactive) | > 100 µM (inactive) | 83.9 µM (inactive) | 42.1 µM (inactive) | 89.9 µM (inactive) | > 100 µM (inactive) | > 100 µM (inactive) | 14.3 µM (inactive) | 42.3 µM (inactive) | > 100 µM (inactive) | –
N#Cc1nc(CSCc2ccccc2)oc1N | > 100 µM (inactive) | – | – | > 100 µM | > 100 µM (inactive) | > 100 µM (inactive) | > 100 µM (inactive) | > 100 µM (inactive) | > 100 µM (inactive) | > 100 µM (inactive) | > 100 µM (inactive) | > 100 µM (inactive) | > 100 µM (inactive) | > 100 µM (inactive) | > 100 µM (inactive) | – | > 100 µM (inactive) | > 100 µM (inactive) | –
N#CCc1nc2cc(C(F)(F)F)ccc2s1 | 70.6 µM (inactive) | 35.3 µM (inactive) | – | 52.1 µM | 56 µM (inactive) | – | 30.1 µM (inactive) | 7.96 µM (inactive) | 37.7 µM (inactive) | – | – | 34.4 µM (inactive) | – | – | > 100 µM (inactive) | – | 49.4 µM (inactive) | 51.8 µM (inactive) | –
Cc1nc(-c2cccnc2)sc1C(=O)/C=C/c1ccc(Cl)cc1Cl | > 100 µM (inactive) | 92.9 µM (inactive) | – | > 100 µM | > 100 µM (inactive) | 83.9 µM (inactive) | > 100 µM (inactive) | 73.6 µM (inactive) | > 100 µM (inactive) | > 100 µM (inactive) | – | > 100 µM (inactive) | > 100 µM (inactive) | > 100 µM (inactive) | > 100 µM (inactive) | 76.4 µM (inactive) | > 100 µM (inactive) | > 100 µM (inactive) | 51.3 µM (inactive)
CN(C)C(=O)C(F)(F)C(c1ccc(C(F)(F)F)cc1)C1C(=O)N(C)C(=O)N(C)C1=O (configuration not stated) | > 100 µM (inactive) | > 100 µM (inactive) | > 100 µM (inactive) | > 100 µM | > 100 µM (inactive) | > 100 µM (inactive) | – | – | – | > 100 µM (inactive) | > 100 µM (inactive) | > 100 µM (inactive) | > 100 µM (inactive) | > 100 µM (inactive) | > 100 µM (inactive) | – | > 100 µM (inactive) | – | –
N#CC(Cc1ccccc1)N(CCC1=CCCCC1)Cc1ccccc1 (configuration not stated) | > 100 µM (inactive) | 61 µM (inactive) | > 100 µM (inactive) | 42.9 µM | > 100 µM (inactive) | 81.3 µM (inactive) | 72.1 µM (inactive) | 22.3 µM (inactive) | 32.2 µM (inactive) | 62.2 µM (inactive) | 31.2 µM (inactive) | 43.8 µM (inactive) | 57.8 µM (inactive) | 28.4 µM (inactive) | > 100 µM (inactive) | 54.1 µM (inactive) | 61.5 µM (inactive) | – | –
CCCCCCCC(CC(=O)O)OC(=O)CC(CCCCCCC)OC1OC(C)C(O)C(O)C1OC1OC(C)C(O)C(O)C1O (configuration not stated) | > 100 µM (inactive) | > 100 µM (inactive) | > 100 µM (inactive) | > 100 µM | > 100 µM (inactive) | > 100 µM (inactive) | > 100 µM (inactive) | > 100 µM (inactive) | > 100 µM (inactive) | > 100 µM (inactive) | > 100 µM (inactive) | > 100 µM (inactive) | > 100 µM (inactive) | > 100 µM (inactive) | > 100 µM (inactive) | 72.1 µM (inactive) | > 100 µM (inactive) | 39 µM (inactive) | –
CC1OC(OC2C(O)COC(OC3C(C)OC(OC4C(OC(=O)[C@]56CCC(C)(C)C[C@@H]5C5=CCC7[C@@]8(C)C[C@H](O)[C@H](OC9OC(CO)C(O)C(O)C9O)[C@@](C)(CO)[C@@H]8CC[C@@]7(C)[C@]5(C)CC6)OCC(O)C4O)C(O)C3O)C2O)C(O)C(O)C1O (some centres not stated) | 12.5 µM (inactive) | 20 µM (inactive) | 21.8 µM (inactive) | 20.9 µM | 21.2 µM (inactive) | 20.8 µM (inactive) | 18.8 µM (inactive) | 19 µM (inactive) | 21 µM (inactive) | 20.5 µM (inactive) | 30.9 µM (inactive) | 17.5 µM (inactive) | – | 18.5 µM (inactive) | 19.8 µM (inactive) | 47.9 µM (inactive) | 23.9 µM (inactive) | 22.2 µM (inactive) | –
Cc1ccc(S(=O)(=O)c2ccsc2NC(=O)C(F)(F)F)cc1 | 34.9 µM (inactive) | 24.9 µM (inactive) | 65 µM (inactive) | 34.9 µM | 39.2 µM (inactive) | 35.7 µM (inactive) | 31.8 µM (inactive) | 18.5 µM (inactive) | 35.8 µM (inactive) | 27.3 µM (inactive) | 44.8 µM (inactive) | 30.3 µM (inactive) | 26.3 µM (inactive) | 29 µM (inactive) | 36.8 µM (inactive) | – | 37.8 µM (inactive) | 39.7 µM (inactive) | –
COc1ccc2nc3ccc(OC)cc3c(SCC3CO3)c2c1 (configuration not stated) | 5.79 µM (inactive) | 37.2 µM (inactive) | 24.6 µM (inactive) | 15.6 µM | 8.71 µM (inactive) | – | 11 µM (inactive) | – | – | 12 µM (inactive) | 11.2 µM (inactive) | 15.5 µM (inactive) | 14.2 µM (inactive) | 15.6 µM (inactive) | 71.3 µM (inactive) | 8.59 µM (inactive) | 60.7 µM (inactive) | 10.8 µM (inactive) | –
